Laboratory results from patent US9446064B2, “Combination therapy for treating cancer” (Epizyme, Inc., priority 2013, dated 2016).

What was measured:
MV4-11 (MLL-AF4) cells = assay: Combination proliferation study with Compound A2 (Cell Titer Glo, Chou-Talalay combination index); assay type: cell-based; details: 7 day cotreatment
Protocol: (§1) The acute myelogenous leukemia cell lines MV4-11 (MLL-AF4) and MOLM-13 (MLL-AF9) were obtained from American Type Culture Collection (ATCC; Rockville, Md.) and Deutsche Sammlung von Mikroorganismen and Zellkulturen (DSMZ; Braunschweig, Germany) respectively.
(§2) Initial proliferation studies were performed to determine the IC50 of a given compound in each cell line.
(§3) Compounds were evaluated for synergy in the co-treatment phase by testing the compounds in a concentration range which was bracketed around their IC50 values. […] DMSO concentration was kept at 0.1% v/v.
(§4) Further, strong synergism is achieved when the CI value falls below 0.3.

MOLM-13 (MLL-AF9) cells = assay: as above; assay type: cell-based; details: 7 day cotreatment
Protocol: as §1, §2, §3, §4

Compound | Combination effect with Compound A2 (combination index) (MV4-11 (MLL-AF4) cells) | Combination effect with Compound A2 (combination index) (MOLM-13 (MLL-AF9) cells)
COc1cc2c(cc1-c1c(C)noc1C)ncc1[nH]c(=O)n([C@H](C)c3ccccn3)c12 [IBET-151] | Synergy (A combination index less than one indicates synergy) | –
N[C@@H]1C[C@H]1c1ccccc1 (racemic) [Tranylcypromine] | synergy | synergy
CC1(C)CCC(c2ccc(Cl)cc2)=C(CN2CCN(c3ccc(C(=O)NS(=O)(=O)c4ccc(N[C@H](CCN5CCOCC5)CSc5ccccc5)c(S(=O)(=O)C(F)(F)F)c4)cc3)CC2)C1 [Navitoclax] | synergy | synergy
CC(C)(C)c1cc(NC(=O)Nc2ccc(-c3cn4c(n3)sc3cc(OCCN5CCOCC5)ccc34)cc2)no1 [Quizartinib] | synergy | –
Nc1ccn([C@@H]2O[C@H](CO)[C@@H](O)[C@@H]2O)c(=O)n1 [Ara-C] | Synergy (A combination index less than one indicates synergy) | –
